Structures are written as SMILES.

The target in the test is concanavalin A (ConA) (Canavalia ensiformis, UniProt P02866). The experiment in a line: Hemagglutination inhibition test, Mal-polyrotaxane conjugate and ConA (Example 11). To be noted: rat erythrocyte, ConA at 4-fold minimum hemagglutinating concentration, maltose basis, FIG. 19. The test is classed as cell-based. How it is done:
Next, hemagglutination inhibition test was performed to evaluate the interaction between Mal-polyrotaxane conjugate and concanavalin A (ConA), then 20 μL of diluted Mal-polyrotaxane conjugate in saline and 20 μL of solution of ConA in saline were dispensed in a 96well plate (U-bottom), stirred, and then incubated at 37° C. for 30 minutes. Next, 40 μL of 2% (v/v) rat erytlirocyte was added to the plate, and the mixture was stirred and then incubated at 37° C. for 30 minutes. The precipitation of erythrocyte was monitored to determine hemagglutination, and the minimum concentration to inhibit hemagglutination was determined. The ConA concentration was set up at a 4-fold higher value than the minimum concentration of ConA at which hemagglutination occurs.
Relative MIC=(Min. inhibitory conc. of maltose)/(Min inhibitory conc. of maltose in the conjugate)

On to `OC[C@H]1O[C@H](O[C@H]2[C@H](O)[C@@H](O)C(O)O[C@@H]2CO)[C@H](O)[C@@H](O)[C@@H]1O` (mixture of isomers) [Mal, maltose], for which the “minimum concentration to inhibit hemagglutination” value was determined as 9.1 mM.

For the origin of these results see patent publication US20040162275A1, “Multivalently interactive molecular assembly, capturing agent, drug carrier, calcium chelating agent, and drug enhancer” (Nobuhiko Yui, priority 2002, published 2004).
